# In patent US5939279A, “Inhibition of bacterial binding by high-mannose oligosaccharides” (priority 1997, dated 1999):
# Key:
# HT-29 cells = test: Adhesion of E. cloacae to HT-29 cells grown in the presence of N-linked glycoprotein processing inhibitors; assay type: cell-based; conditions: for activation at 5 µg/mL: inhibitor 5 μg/ml; for activation at 10 µg/mL: inhibitor 10 μg/ml; for activation at 50 µg/mL: inhibitor 50 μg/ml; for Adhesion (cpm): average of three sets of experiments; for change in the amount of radioactive bacteria bound: text summary of Table II; for activation at 25 µg/mL: inhibitor 25 μg/ml; for activation at 100 µg/mL: inhibitor 100 μg/ml
# Description: (§1) Bacterial adherence was measured as follows: confluent HT-29 cell monolayers, contained in 24 well plates, were washed two times with PBS. Various amounts of the labeled bacteria, all in the same final volume of buffer, were added to the monolayers and allowed to incubate at 37° C. for 1 hour, with intermittent agitation. At least three wells received each concentration of bacteria. At the end of the incubation, unbound bacteria were removed by aspiration, and the monolayers were washed at least 5 times with PBS. After this thorough washing, the HT-29 cells were released from each well with a trypsin-EDTA mixture and the cell suspension was placed in a scintillation vial. Each well was then washed with another 0.5 ml of water along with scraping with a plastic paddle to remove any firmly attached cells. This second wash was then added to the same vial that contained the first trypsin digest. Ten ml of scintillation fluid were added and radioactivity was determined as a measure of the number of bacteria bound.
# HT-29 cells were transferred at low density to multiwell plates, and grown in McCoy's medium containing different concentrations of various processing inhibitors. Thus, one 24-well plate was divided into 4 sections, each with 6 wells having the following components: castanospermine at 0, 5, 10, 25, 50 and 100 μg/ml; deoxymannojirimycin at 0, 5, 25, 50, 100 and 200 μg/ml; kifunensine at 0, 2, 5, 10, 25 and 50 μg/ml; swainsonine at 0, 1, 5, 10, 25 and 50 μg/ml. HT-29 cells were allowed to grow to confluency over a period of 4 to 5 days. Once the cells reached confluency, the media was removed by aspiration and the monolayers were washed with PBS. Each well was then challenged with the same number of radioactive bacteria to determine the extent of bacterial adhesion, as described above in the adhesion assay.
# Enterobacter cloacae = test: microbe, parasite or virus in culture; assay type: cell-based; conditions: for inhibition of binding: even at 100 mM concentrations; for IC50: 1 h, read-out: 50% inhibition of binding
# Description: as §1
# A variety of simple sugars (D-mannose, D-galactose, D-fructose, L-fucose, D-GlcNAc, sialic acid) were tested at various concentrations to determine their ability to block the adhesion of Enterobacter cloacae to the HT-29 cells. In addition, p-nitrophenyl-α-D-mannoside and 4-methylumbelliferyl-α-D-mannoside and glycopeptides with various high-mannose or complex types of oligosaccharides were also tested as inhibitors. […] […] The plates were then incubated and harvested as described above in the adherence assay, and the amount of radioactivity bound to the cell monolayer was determined.
# 35 kDa pili subunit = 35 kDa pili subunit (Enterobacter cloacae, UniProt Q9Z643); test: Modified Western blot: labeling of pili adhesive subunit by α-mannosylated-biotinylated-albumin; assay type: binding; conditions: 50 mM sugar in incubation; FIG. 5
# Description: Modified Western blot using an α-mannosylated-biotinylated-albumin, followed by an avidin-horseradish peroxidase conjugate and then visualization with 4-chloro-napthol according to the manufacturer's directions; D. Reaction system as in C, but incubated in the presence of 50 mM α-D-glucose; E. Reaction system as in C and D, but incubated in the presence of 50 mM α-D-mannose.
# Thus, purified pili were subjected to 12% SDS-PAGE, and the resulting protein bands were transferred to nitrocellulose membranes. After washing the membranes to remove SDS, and incubating them with PBS containing 5% bovine serum albumin, they were incubated for 2 hours at room temperature with a mannosylated-albumin that contained a biotin tag. Some incubations also contained 50 mM D-mannose or 50 mM D-glucose.
# Escherichia coli = conditions: studies by Firon et al (8); cited from earlier work
# [1] = Homo sapiens, HT-29, percent relative to the control, read-out: Increase in adhesion (%)
# [2] = inhibitor 5 μg/ml in culture medium
# [3] = inhibitor 10 μg/ml in culture medium
# [4] = inhibitor 25 μg/ml in culture medium
# [5] = inhibitor 50 μg/ml in culture medium
# [6] = inhibitor 100 μg/ml in culture medium
# Sequence of 35 kDa pili subunit (Q9Z643 entry or part of it): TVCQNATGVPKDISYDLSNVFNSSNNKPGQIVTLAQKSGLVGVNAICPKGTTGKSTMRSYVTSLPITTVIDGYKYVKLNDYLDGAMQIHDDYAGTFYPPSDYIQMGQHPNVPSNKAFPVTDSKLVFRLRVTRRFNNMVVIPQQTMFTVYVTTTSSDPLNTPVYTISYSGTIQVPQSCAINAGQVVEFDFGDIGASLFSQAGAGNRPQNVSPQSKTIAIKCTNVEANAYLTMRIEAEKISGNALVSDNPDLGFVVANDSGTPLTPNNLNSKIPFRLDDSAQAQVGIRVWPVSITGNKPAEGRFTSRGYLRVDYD
structure (smiles),measurement,setting,value
O[C@H]1[C@H]2[C@H](O)CCCN2C[C@H]1O [Swainsonine],activation at 1 µg/mL,"HT-29 cells; Homo sapiens, HT-29, inhibitor 1 μg/ml, percent relative to the control, read-out: Increase in adhesion (%)",10%
same,activation at 5 µg/mL,HT-29 cells; [1],5%
same,activation at 10 µg/mL,HT-29 cells; [1],11%
same,activation at 50 µg/mL,HT-29 cells; [1],8%
same,Adhesion (cpm),HT-29 cells; inhibitor 1 μg/ml in culture medium,"15,219 cpm"
same,Adhesion (cpm),HT-29 cells; [2],"14,577 cpm"
same,Adhesion (cpm),HT-29 cells; [3],"15,275 cpm"
same,Adhesion (cpm),HT-29 cells; [4],"13,857 cpm"
same,Adhesion (cpm),HT-29 cells; [5],"14,965 cpm"
same,change in the amount of radioactive bacteria bound,HT-29 cells,did not cause any change
OC[C@H]1OC(O)[C@H](O)[C@@H](O)[C@@H]1O (stereo partly drawn) [D-glucose],inhibition of binding,Enterobacter cloacae,did not inhibit binding
CO[C@H]1O[C@H](CO)[C@@H](O)[C@H](O)[C@@H]1O [α-methylmannoside],reversal of binding,Enterobacter cloacae; 5 mM added to the monolayers after the bacteria had bound,reversed
same,IC50,Enterobacter cloacae; Enterobacter cloacae,150 µM
OC[C@H]1OC(O)[C@@H](O)[C@@H](O)[C@@H]1O (stereo partly drawn) [D-mannose],IC50,Enterobacter cloacae; Enterobacter cloacae,500 µM
same,labeling of the 35 kDa band by mannosylated-biotinylated-albumin,35 kDa pili subunit,inhibited
O=[N+]([O-])c1ccc(O[C@H]2O[C@H](CO)[C@@H](O)[C@H](O)[C@@H]2O)cc1 [p-nitrophenyl-α-D-mannoside],reversal of binding,Enterobacter cloacae; 0.5 mM added to the monolayers after the bacteria had bound,reversed
same,IC50,Enterobacter cloacae; Enterobacter cloacae,20 µM
same,"inhibitor of Escherichia coli binding to epithelial cells, relative effectiveness",Escherichia coli,considerably better as an inhibitor than was α-methylmannoside
C[C@H](O)[C@@H](O)[C@@H](O)[C@H](O)C=O [L-fucose],inhibition of binding,Enterobacter cloacae,did not inhibit binding
"Cc1cc(=O)oc2cc(O[C@H]3O[C@H](CO)[C@@H](O)[C@H](O)[C@@H]3O)ccc12 [4-methylumbilliferyl-α-D-mannoside, 4-methylumbelliferyl-α-D-mannoside]",IC50,Enterobacter cloacae; Enterobacter cloacae,10 µM
same,inhibition at 100 µM,"Enterobacter cloacae; Enterobacter cloacae, read-out: inhibition of binding",80 to 90%
same,"inhibitor of Escherichia coli binding to epithelial cells, relative effectiveness",Escherichia coli,even better then the p-nitrophenyl-derivative
O=C1N[C@@H]2[C@@H](O)[C@@H](O)[C@H](O)[C@@H](CO)N2C1=O [Kifunensine],activation at 2 µg/mL,"HT-29 cells; Homo sapiens, HT-29, inhibitor 2 μg/ml, percent relative to the control, read-out: Increase in adhesion (%)",42%
same,activation at 5 µg/mL,HT-29 cells; [1],50%
same,activation at 10 µg/mL,HT-29 cells; [1],43%
same,activation at 25 µg/mL,HT-29 cells; [1],52%
same,activation at 50 µg/mL,HT-29 cells; [1],75%
same,Adhesion (cpm),HT-29 cells; inhibitor 2 μg/ml in culture medium,"19,033 cpm"
same,Adhesion (cpm),HT-29 cells; [2],"20,161 cpm"
same,Adhesion (cpm),HT-29 cells; [3],"19,257 cpm"
same,Adhesion (cpm),HT-29 cells; [4],"20,414 cpm"
same,Adhesion (cpm),HT-29 cells; [5],"23,442 cpm"
CC(=O)N[C@H]1C(O)O[C@H](CO)[C@H](O)[C@@H]1O (some centres unmarked) [N-acetylgalactosamine],inhibition of binding,Enterobacter cloacae,did not inhibit binding
O[C@H]1[C@H](O)[C@@H](O)CN2CC[C@H](O)[C@H]12 [Castanospermine],activation at 100 µg/mL,HT-29 cells; [1],8%
same,Adhesion (cpm),HT-29 cells; [2],"12,410 cpm"
same,Adhesion (cpm),HT-29 cells; [3],"13,787 cpm"
same,Adhesion (cpm),HT-29 cells; [4],"13,973 cpm"
same,Adhesion (cpm),HT-29 cells; [5],"13,626 cpm"
same,Adhesion (cpm),HT-29 cells; [6],"14,943 cpm"
same,change in the amount of radioactive bacteria bound,HT-29 cells,did not cause any significant change
OC[C@H]1NC[C@@H](O)[C@@H](O)[C@@H]1O [Deoxymannojirimycin],activation at 5 µg/mL,HT-29 cells; [1],36%
same,activation at 25 µg/mL,HT-29 cells; [1],47%
same,activation at 50 µg/mL,HT-29 cells; [1],49%
same,activation at 100 µg/mL,HT-29 cells; [1],53%
same,activation at 200 µg/mL,"HT-29 cells; Homo sapiens, HT-29, inhibitor 200 μg/ml, percent relative to the control, read-out: Increase in adhesion (%)",50%
same,Adhesion (cpm),HT-29 cells; [2],"18,630 cpm"
same,Adhesion (cpm),HT-29 cells; [4],"20,180 cpm"
same,Adhesion (cpm),HT-29 cells; [5],"20,500 cpm"
same,Adhesion (cpm),HT-29 cells; [6],"21,018 cpm"
same,Adhesion (cpm),HT-29 cells; inhibitor 200 μg/ml in culture medium,"20,548 cpm"
CC(=O)N[C@H]1C(O)O[C@H](CO)[C@@H](O)[C@@H]1O (some centres unmarked) [N-acetylglucosamine],inhibition of binding,Enterobacter cloacae,did not inhibit binding
CC(=O)N[C@H]1[C@H]([C@H](O)[C@H](O)CO)OC(O)(C(=O)O)C[C@@H]1O (some centres unmarked) [sialic acid],inhibition of binding,Enterobacter cloacae,did not inhibit binding
O=C[C@H](O)[C@@H](O)[C@@H](O)[C@H](O)CO [D-galactose],inhibition of binding,Enterobacter cloacae,did not inhibit binding
